Reference: ChEMBL document CHEMBL1158448, “Synthesis and antinociceptive activity of pyrazolyl isoxazolines and pyrazolyl isoxazoles” (2009)

Experiments:
Rattus norvegicus [1] = experiment: Antinociceptive activity in Wistar albino rat assessed as latency in reaction time required for thermal stimulus-induced tail flicking at 15 mg/kg, po after 180 mins by analgesiometric analysis (RVb=3.16 +/- 0.16 seconds); type: functional
Rattus norvegicus [2] = experiment: Antinociceptive activity in Wistar albino rat assessed as latency in reaction time required for thermal stimulus-induced tail flicking at 15 mg/kg, po after 120 mins by analgesiometric analysis (RVb=3.33 +/- 0.21 seconds); type: functional
Rattus norvegicus [3] = experiment: Antinociceptive activity in Wistar albino rat assessed as latency in reaction time required for thermal stimulus-induced tail flicking at 30 mg/kg, po after 30 mins by analgesiometric analysis (RVb=3.33 +/- 0.21 seconds); type: functional
Rattus norvegicus [4] = experiment: Antinociceptive activity in Wistar albino rat assessed as latency in reaction time required for thermal stimulus-induced tail flicking at 15 mg/kg, po after 60 mins by analgesiometric analysis (RVb=3.16 +/- 0.16 seconds); type: functional
Rattus norvegicus [5] = experiment: Antinociceptive activity in Wistar albino rat assessed as latency in reaction time required for thermal stimulus-induced tail flicking at 30 mg/kg, po after 180 mins by analgesiometric analysis (RVb=3.16 +/- 0.16 seconds); type: functional
Rattus norvegicus [6] = experiment: Antinociceptive activity in Wistar albino rat assessed as latency in reaction time required for thermal stimulus-induced tail flicking at 30 mg/kg, po after 60 mins by analgesiometric analysis (RVb=3.16 +/- 0.16 seconds); type: functional
Rattus norvegicus [7] = experiment: Antinociceptive activity in Wistar albino rat assessed as latency in reaction time required for thermal stimulus-induced tail flicking at 15 mg/kg, po after 30 mins by analgesiometric analysis (RVb=3.33 +/- 0.21 seconds); type: functional
Rattus norvegicus [8] = experiment: Antinociceptive activity in Wistar albino rat assessed as latency in reaction time required for thermal stimulus-induced tail flicking at 30 mg/kg, po after 120 mins by analgesiometric analysis (RVb=3.33 +/- 0.21 seconds); type: functional
Mus musculus [9] = experiment: Antinociceptive activity in Swiss albino mouse assessed as protection against acetic acid-induced abdominal constriction at 30 mg/kg, po measured for 10 mins after 5 mins of acetic acid challenge relative to control; type: functional, Abdomen
Mus musculus [10] = experiment: Antinociceptive activity in Swiss albino mouse assessed as protection against acetic acid-induced abdominal constriction at 15 mg/kg, po measured for 10 mins after 5 mins of acetic acid challenge relative to control; type: functional, Abdomen
Rattus norvegicus [11] = experiment: Antinociceptive activity in Wistar albino rat assessed as latency in reaction time required for thermal stimulus-induced tail flicking at 5 mg/kg, po after 180 mins by analgesiometric analysis (RVb=3.16 +/- 0.16 seconds); type: functional
Rattus norvegicus [12] = experiment: Antinociceptive activity in Wistar albino rat assessed as latency in reaction time required for thermal stimulus-induced tail flicking at 5 mg/kg, po after 30 mins by analgesiometric analysis (RVb=3.33 +/- 0.21 seconds); type: functional
Rattus norvegicus [13] = experiment: Antinociceptive activity in Wistar albino rat assessed as latency in reaction time required for thermal stimulus-induced tail flicking at 5 mg/kg, po after 120 mins by analgesiometric analysis (RVb=3.33 +/- 0.21 seconds); type: functional
Rattus norvegicus [14] = experiment: Antinociceptive activity in Wistar albino rat assessed as latency in reaction time required for thermal stimulus-induced tail flicking at 5 mg/kg, po after 60 mins by analgesiometric analysis (RVb=3.16 +/- 0.16 seconds); type: functional
Mus musculus [15] = experiment: Antinociceptive activity in Swiss albino mouse assessed as protection against acetic acid-induced abdominal constriction at 100 mg/kg, po measured for 10 mins after 5 mins of acetic acid challenge relative to control; type: functional, Abdomen

SMILES	Activity (Rattus norvegicus [1])	Activity (Rattus norvegicus [2])	Activity (Rattus norvegicus [3])	Activity (Rattus norvegicus [4])	Activity (Rattus norvegicus [5])	Activity (Rattus norvegicus [6])	Activity (Rattus norvegicus [7])	Activity (Rattus norvegicus [8])	Activity (Mus musculus [9])	Activity (Mus musculus [10])	Activity (Rattus norvegicus [11])	Activity (Rattus norvegicus [12])	Activity (Rattus norvegicus [13])	Activity (Rattus norvegicus [14])	Activity (Mus musculus [15])
COc1ccc(-c2nn(-c3ccccc3)cc2-c2cc(-c3ccccc3)on2)cc1	3.5 s	4 s	3.33 s	4.16 s	5.33 s	6 s	3.16 s	5.83 s	30.99%	11.77%	–	–	–	–	–
CN1C(=O)C2ON=C(c3cn(-c4ccccc4)nc3-c3ccccc3)C2C1=O (stereo not given)	3.33 s	3.5 s	3.33 s	3.5 s	4.83 s	5.16 s	3.16 s	5 s	30.58%	1.17%	–	–	–	–	–
CN1C(=O)C2ON=C(c3cn(-c4ccccc4)nc3-c3ccc(Cl)cc3)C2C1=O (stereo not given)	3.66 s	3.83 s	3.33 s	4 s	5.5 s	6.66 s	3.16 s	6.5 s	23.15%	7.84%	–	–	–	–	–
CCOC(=O)c1onc(-c2cn(-c3ccccc3)nc2-c2ccc(Cl)cc2)c1C(=O)OCC	4 s	4.16 s	3.83 s	4.33 s	7.5 s	8.66 s	3.33 s	8.33 s	55.29%	17.27%	–	–	–	–	–
CCOC(=O)c1onc(-c2cn(-c3ccccc3)nc2-c2ccc(Br)cc2)c1C(=O)OCC	3.5 s	3.83 s	3.33 s	4 s	7.5 s	8.16 s	3.33 s	8 s	56.87%	12.94%	–	–	–	–	–
CN1C(=O)C2ON=C(c3cn(-c4ccccc4)nc3-c3ccc(Br)cc3)C2C1=O (stereo not given)	3.33 s	3.83 s	3.33 s	3.83 s	6.5 s	7.16 s	3.16 s	7 s	40.4%	9.81%	–	–	–	–	–
O=C1C2ON=C(c3cn(-c4ccccc4)nc3-c3ccc(Cl)cc3)C2C(=O)N1c1ccccc1 (stereo not given)	3.66 s	4 s	3.33 s	4.16 s	5.5 s	6.16 s	3.33 s	6 s	43.15%	23.93%	–	–	–	–	–
Cc1ccc(N2C(=O)C3ON=C(c4cn(-c5ccccc5)nc4-c4ccc(Cl)cc4)C3C2=O)cc1 (stereo not given)	3.33 s	3.33 s	3.33 s	3.66 s	4.5 s	5.33 s	3.33 s	5.16 s	42.75%	22.75%	–	–	–	–	–
O=C1C2ON=C(c3cn(-c4ccccc4)nc3-c3ccccc3)C2C(=O)N1c1ccccc1 (stereo not given)	3.33 s	3.33 s	3.33 s	3.5 s	5.66 s	6.83 s	3.16 s	6.66 s	47.39%	30.58%	–	–	–	–	–
CCOc1ccc(-c2nn(-c3ccccc3)cc2C2=NOC3C(=O)N(c4ccccc4)C(=O)C23)cc1 (stereo not given)	3.5 s	3.5 s	3.16 s	3.16 s	5.83 s	6.83 s	3.16 s	6.16 s	49.51%	12.16%	–	–	–	–	–
CCOC(=O)c1onc(-c2cn(-c3ccccc3)nc2-c2ccc(OC)cc2)c1C(=O)OCC	4 s	4.33 s	3.83 s	5 s	7 s	7.83 s	3.33 s	7.66 s	57.65%	11.39%	–	–	–	–	–
CCCCc1cc(-c2cn(-c3ccccc3)nc2-c2ccc(Cl)cc2)no1	3.33 s	3.5 s	3.33 s	3.66 s	6.16 s	6.83 s	3.16 s	6.6 s	47.09%	12.56%	–	–	–	–	–
O=C1C2ON=C(c3cn(-c4ccccc4)nc3-c3ccc(Br)cc3)C2C(=O)N1c1ccccc1 (stereo not given)	3.33 s	3.66 s	3.16 s	3.66 s	6.5 s	7 s	3.16 s	6.83 s	49.04%	2.75%	–	–	–	–	–
Brc1ccc(-c2nn(-c3ccccc3)cc2-c2cc(-c3ccccc3)on2)cc1	3.5 s	3.66 s	3.33 s	3.23 s	5.16 s	5.83 s	3.16 s	5.66 s	31.39%	14.52%	–	–	–	–	–
CCOc1ccc(-c2nn(-c3ccccc3)cc2C2=NOC3C(=O)N(C)C(=O)C23)cc1 (stereo not given)	3.5 s	3.83 s	3.83 s	4 s	5.83 s	6.16 s	3.16 s	6 s	47.46%	22.75%	–	–	–	–	–
Clc1ccc(-c2nn(-c3ccccc3)cc2-c2cc(-c3ccccc3)on2)cc1	3.83 s	4 s	3.83 s	4.16 s	6.16 s	6.83 s	3.16 s	6.6 s	49.04%	1.58%	–	–	–	–	–
CC(C)=CCN1CC[C@]2(C)c3cc(O)ccc3C[C@H]1[C@H]2C [(+)-PENTAZOCINE]	–	–	–	–	–	–	–	–	–	–	8 s	9.16 s	9.3 s	9.33 s	–
CC(=O)Oc1ccccc1C(=O)O [ASPIRIN]	–	–	–	–	–	–	–	–	–	–	–	–	–	–	62.35%
